Results: BindingDB's records for doi:10.1021/acs.jmedchem.5b01538 (Glaxosmithkline, 2016)

Target: T1, Lysine-specific demethylase 4C (Homo sapiens, UniProt Q9H3R0)
T1 sequence (Q9H3R0 whole entry): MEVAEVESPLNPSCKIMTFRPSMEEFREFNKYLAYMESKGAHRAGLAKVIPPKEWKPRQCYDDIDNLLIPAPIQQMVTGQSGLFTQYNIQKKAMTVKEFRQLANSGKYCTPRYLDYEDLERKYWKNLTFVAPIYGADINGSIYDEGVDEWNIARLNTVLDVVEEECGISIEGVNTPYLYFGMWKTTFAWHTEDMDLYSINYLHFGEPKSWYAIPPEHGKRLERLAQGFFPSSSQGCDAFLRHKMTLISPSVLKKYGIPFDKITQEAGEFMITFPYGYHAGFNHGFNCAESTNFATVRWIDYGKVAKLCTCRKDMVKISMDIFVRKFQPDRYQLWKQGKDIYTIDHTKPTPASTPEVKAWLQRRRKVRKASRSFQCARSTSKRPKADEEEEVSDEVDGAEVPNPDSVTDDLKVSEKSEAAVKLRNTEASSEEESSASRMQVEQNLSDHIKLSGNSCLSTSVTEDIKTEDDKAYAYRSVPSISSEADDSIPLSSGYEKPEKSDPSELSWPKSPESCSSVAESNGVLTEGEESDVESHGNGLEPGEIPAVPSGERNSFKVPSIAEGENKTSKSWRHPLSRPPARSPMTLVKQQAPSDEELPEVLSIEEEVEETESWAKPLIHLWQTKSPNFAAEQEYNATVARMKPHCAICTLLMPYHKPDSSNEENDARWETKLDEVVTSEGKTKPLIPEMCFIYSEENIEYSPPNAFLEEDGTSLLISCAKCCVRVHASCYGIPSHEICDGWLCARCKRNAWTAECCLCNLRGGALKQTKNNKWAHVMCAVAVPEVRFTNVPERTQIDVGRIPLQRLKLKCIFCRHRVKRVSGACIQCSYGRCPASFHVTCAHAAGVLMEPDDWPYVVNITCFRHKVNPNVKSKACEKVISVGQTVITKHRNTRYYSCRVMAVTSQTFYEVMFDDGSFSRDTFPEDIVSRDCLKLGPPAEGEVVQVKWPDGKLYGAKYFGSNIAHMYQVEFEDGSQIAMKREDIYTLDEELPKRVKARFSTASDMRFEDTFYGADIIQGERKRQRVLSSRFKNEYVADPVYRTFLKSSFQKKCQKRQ
Experiment: Inhibition of N-terminal his-tagged full-length human KDM4C transfected in U2OS cells assessed as inhibition of H3K9Me3 demethylation for 24 hrs

Compound | IC50
CC(C)c1ccc(Oc2nc3cnccc3c(=O)[nH]2)cn1 | 3.98 µM
O=c1[nH]c(Oc2ccc(Cl)c(O)c2)nc2cnccc12 | 3.98 µM
